The subject of assay [1] is OSM-induced pSTAT3 in T47D human breast cancer cells. The experiment in a line: pSTAT3 ELISA in T47D cells treated with OSM ± SMI. Type of assay: cell-based. The following applies: for IC50: Homo sapiens. The protocol:
(§1) To test the effect of SMIs in vitro, each SMI was incubated with OSM for a period of 1 h at 37 °C, and T47D and MDA-MB-231 human breast cancer cell lines were subsequently treated with OSM (10 ng/mL) and/or SMI-10 (10 μM) analogs for 30 min and measured for pSTAT3 levels via ELISA. The results of these assays are presented graphically in Figure and, for T47D cells, in Table as a percentage of reduction from +OSM alone. For phospho-STAT3 (pSTAT3) ELISAs, T47D MDA-MB-231, and MCF-7 cells were seeded in 12- or 24-well plates at 70–75% confluency and allowed to adhere overnight, after which cells were serum-starved with serum-free RPMI-1640 for 4 h. SMIs (10 μM in DMSO or serially diluted to specified concentrations from a 100 mM stock in DMSO) and human recombinant OSM (10 ng/mL; PeproTech; #300–10T-10UG) were incubated in serum-free RPMI-1640 medium for 1 h. After incubation, the SMI-10 analogs or SMI-10B13 and OSM were added to the serum-starved cells for 30 min. Immediately afterward, the cells were lysed using 1x PathScan Sandwich ELISA Lysis Buffer (Cell Signaling Technology; #7018S), collected, and stored at −20 °C. Lysates were analyzed for pSTAT3 levels using either the PathScan Phospho-STAT3 (Tyr705) Sandwich ELISA Antibody Pair kit (Cell Signaling Technology; #7146) or Human/Mouse Phospho-STAT3 (Y705) DuoSet IC ELISA (R&D Systems; DYC4607B), according to manufacture’s protocol. pSTAT3 expression was measured with absorbance at 450 nm and quantified by comparison relative to OSM-induced pSTAT3 levels. To calculate an IC50 for SMI-10B13, a standard curve was generated as described in the DuoSet IC ELISA datasheet to determine the concentration of pSTAT3.

A further assay addresses T1, gp130 (Homo sapiens, UniProt P40189).
T1 construct: purchased R&D Systems 671-GP
T1 sequence (P40189 23-619 limits assumed): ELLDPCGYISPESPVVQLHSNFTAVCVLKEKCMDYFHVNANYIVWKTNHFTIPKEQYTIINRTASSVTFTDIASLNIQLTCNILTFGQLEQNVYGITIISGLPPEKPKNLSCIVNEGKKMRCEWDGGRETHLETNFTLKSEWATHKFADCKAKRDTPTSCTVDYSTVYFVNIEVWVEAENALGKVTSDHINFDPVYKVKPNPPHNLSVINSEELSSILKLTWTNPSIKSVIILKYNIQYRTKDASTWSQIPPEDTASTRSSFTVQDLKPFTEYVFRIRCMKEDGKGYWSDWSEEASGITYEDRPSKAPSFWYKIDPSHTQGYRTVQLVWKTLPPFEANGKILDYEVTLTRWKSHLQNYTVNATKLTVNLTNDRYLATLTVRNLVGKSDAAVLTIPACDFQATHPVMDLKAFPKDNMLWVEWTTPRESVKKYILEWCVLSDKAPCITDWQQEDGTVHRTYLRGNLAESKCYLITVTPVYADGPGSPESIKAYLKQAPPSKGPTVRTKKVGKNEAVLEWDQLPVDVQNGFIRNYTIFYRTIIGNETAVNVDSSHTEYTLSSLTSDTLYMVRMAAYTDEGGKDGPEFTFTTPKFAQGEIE
The experiment in a line: Fluorescence quenching check of SMI binding to gp130. The following applies: data not shown.

The test system of assay [2] is OSM-mediated STAT3 phosphorylation in MCF-7 cells. The experiment in a line: pSTAT3 ELISA in MCF-7 cells treated with OSM ± SMI. The conditions noted are these: Homo sapiens, MCF7. It counts as cell-based. As to the method:
as §1, with “For” for “To test the effect of SMIs in vitro, each SMI was incubated with OSM for a period of 1 h at 37 °C, and T47D and MDA-MB-231 human breast cancer cell lines were subsequently treated with OSM (10 ng/mL) and/or SMI-10 (10 μM) analogs for 30 min and measured for pSTAT3 levels via ELISA. The results of these assays are presented graphically in Figure and, for T47D cells, in Table as a percentage of reduction from +OSM alone. For”
A general note: ELISA stands for enzyme-linked immunosorbent assay.

Setting [3] is: T47D, SMI 10 μM + OSM 10 ng/mL, 30 min, ELISA, relative to +OSM, no-treatment blank subtracted.

Each structure is given as a SMILES string. Read-outs that look alike come from different tables or passages of the source.

In the case of `O=C(O)/C=C/c1cc(-c2ccc3c(c2)OCO3)c(-c2ccc3c(c2)OCO3)o1` [SMI-10B, (E)-3-(4,5-Bis(benzo[d][1,3]dioxol-5-yl)furan-2-yl)acrylic acid], in assay [1] (setting [3]), the “Relative pSTAT3 Levels (Table 1, SMI-10A-10J)” value was determined as 12.8% and the “Relative pSTAT3 Levels (Table 2, SMI-10B analogs)” value was 30.14%. For the same molecule, in assay [1] (T47D, SMI 10 μM, OSM 10 ng/mL, 30 min), the “Inhibition of OSM-induced pSTAT3 via ELISA” value is listed as “capable of inhibiting OSM-induced pSTAT3”.
As for `O=C(O)/C=C/c1cc(-c2ccc3cc[nH]c3c2)c(-c2ccc3cc[nH]c3c2)o1` [SMI-10B13, (E)-3-(4,5-di(1H-Indol-6-yl)furan-2-yl)acrylic Acid], the IC50 in assay [1] (Figure S3 graph A (T47D by order), four parameter nonlinear regression, given as negative log value, read-out: LogIC50 (graph A) (converted)) is 136 nM; in assay [1] (T47D cells, ELISA, read-out: IC50 for inhibition of STAT3 phosphorylation) it was 136 nM; in assay [2] (Figure S3 graph B (MCF-7 by order), four parameter nonlinear regression, given as negative log value, read-out: LogIC50 (graph B) (converted)), 164 nM; in assay [2] (MCF-7 cells, ELISA, read-out: IC50 for inhibition of STAT3 phosphorylation), 164 nM. Further, the “Relative pSTAT3 Levels (Table 2, SMI-10B analogs)” value was found to be 32.7% in assay [1] (setting [3]) and 32.73% in assay [1] (T47D, SMI 10 μM + OSM 10 ng/mL, 30 min, ELISA, relative to +OSM, no-treatment blank subtracted, listed as 10B13). Also, the “Binding to gp130” value at gp130 is recorded as “does not bind to gp130”.

Values taken from PMC12362618, “Development of the First Small-Molecule Inhibitor Targeting Oncostatin M for Treatment of Breast Cancer” (Journal of Medicinal Chemistry, 2025).
